Measurements reported in ChEMBL document CHEMBL1129129, “Modelisation, synthesis and antiviral evaluation of new 2,3-disubstituted thiazolidinone nucleoside analogues” (Bioorg Med Chem Lett, 1996).

Columns and labels:
MT4 [1] = test: Compound was tested for its cytotoxicity against HIV-1 infected MT-4 cell lines; assay type: functional; conditions: Homo sapiens
MT4 [2] = test: Compound was tested to inhibit HIV-1 replication in MT-4 cell lines; assay type: functional, cell-based; conditions: Homo sapiens
Anas sp. [3] = test: Compound was tested for its cytotoxicity against duck hepatitis B virus in duck fetal hepatocytes culture; assay type: functional; conditions: Hepatocyte
Anas sp. [4] = test: Compound was tested for its antiviral activity against hepatitis B virus(DHBV) in duck fetal hepatocytes culture; assay type: functional, organism-based; conditions: Hepatocyte
MT4 [5] = test: Compound was tested to inhibit HIV-1 replication in MT-4 cell lines; value may range from 5 - 15; assay type: functional, cell-based; conditions: Homo sapiens
MT4 [6] = test: Compound was tested to inhibit HIV-1 replication in MT-4 cell lines; value may range from 1 - 10; assay type: functional, cell-based; conditions: Homo sapiens

Molecule `Nc1ccn(CCN2C(=O)CSC2COC(=O)c2ccccc2)c(=O)n1` (stereo not drawn) has a CC50 (MT4 [1]) of about 100 µM and an IC50 (MT4 [2]) of at least 100 µM.
Molecule `Nc1ccn(C2CS[C@H](CO)O2)c(=O)n1` (single isomer, unassigned) [LAMIVUDINE] has a CC50 (Anas sp. [3]) of over 400 µM, a CC50 (MT4 [1]) of 100 µM and an IC50 (Anas sp. [4]) of 0.1 µM.
In the case of `Nc1ccn(CCN2C(=O)CSC2CO)c(=O)n1` (stereo not drawn), the CC50 (Anas sp. [3]) is reported as 100 µM, the CC50 (MT4 [1]) is reported as about 300 µM and the IC50 (Anas sp. [4]) is reported as 2 µM. For the same molecule, the IC50 (MT4 [2]) was at least 300 µM.
In the case of `Cc1cn(CCN2C(=O)CSC2CO)c(=O)[nH]c1=O` (stereo not drawn), the CC50 (Anas sp. [3]) is reported as at least 200 µM, the CC50 (MT4 [1]) is reported as 100 µM and the IC50 (Anas sp. [4]) is reported as 2 µM. For the same molecule, the IC50 (MT4 [5]) was 15 µM.
For `Nc1ncnc2c1ncn2CCN1C(=O)CSC1CO` (stereo not drawn), the CC50 (Anas sp. [3]) was 200 µM, the CC50 (MT4 [1]) was 100 µM and the IC50 (Anas sp. [4]) was 2 µM. It also gave an IC50 (MT4 [6]) of 10 µM.
In the case of `Nc1nc(=O)n(CCN2C(=O)CSC2CO)cc1F` (stereo not drawn), the CC50 (Anas sp. [3]) is reported as 150 µM, the CC50 (MT4 [1]) is reported as 100 µM and the IC50 (Anas sp. [4]) is reported as 2 µM. It also gave an IC50 (MT4 [6]) of 10 µM.
Molecule `Nc1nc(=O)n(CCN2C(=O)CSC2COC(=O)c2ccccc2)cc1F` (stereo not drawn) has a CC50 (MT4 [1]) of 100 µM and an IC50 (MT4 [6]) of 10 µM.
